Laboratory results: patent publication US8632767B2, “3-[1-(3-haloalkyl)triazolyl]phenyl sulphide derivatives as acaricides and insecticides” (Bayer Intellectual Property GmbH, priority 2009, dated 2014)

Columns and labels:
[1] = log P by HPLC on reversed-phase C18, LC-MS, pH 2.7, formic acid (HCOOH); assay type: physicochemical; details: reversed-phase C18 HPLC column; HPLC C18, pH 2.7, 0.1% aqueous formic acid/acetonitrile
Description: The log P values reported in the table above and in the preparation examples were determined in accordance with EEC Directive 79/831 Annex V.A8 by HPLC (High Performance Liquid Chromatography) on reversed-phase columns (C18), with the following methods: ^[b] The determination is made by LC-MS in the acid range at pH 2.7 with 0.1% aqueous formic acid and acetonitrile (containing 0.1% formic acid) as eluents; linear gradient from 10% acetonitrile to 95% acetonitrile. Calibration took place with unbranched alkan-2-ones (having 3 to 16 carbon atoms) of known log P values (log P values determined from the retention times by linear interpolation between two successive alkanones).

[2] = system: greenhouse red spidermite (Tetranychus urticae); assay: Tetranychus test; OP resistant (TETRUR spray treatment), Example 3; assay type: in vivo; details: foliar, 144 h, spray on bean leaf discs, after 6 days, read-out: effect (mites killed)
Description: Solvents: 78.0 parts by weight of acetone • • 1.5 parts by weight of dimethylformamide Emulsifier: 0.5 part by weight of alkylaryl polyglycol ether An appropriate preparation of active compound is prepared by mixing 1 part by weight of active compound with the stated amounts of solvent and emulsifier and diluting the concentrate with emulsifier-containing water to the desired concentration. Leaf discs of bean (Phaseolus vulgaris) infested by all stages of the greenhouse red spidermite (Tetranychus urticae) are sprayed with a preparation of active compound at the desired concentration. After 6 days, the effect in % is determined. Here, 100% means that all of the mites have been killed; 0% means that no mites have been killed.

[3] = system: larvae of the mustard beetle (Phaedon cochleariae); assay: Phaedon test (PHAECO spray treatment); assay type: in vivo; details: foliar, 168 h, spray on Chinese cabbage leaf discs, after 7 days, read-out: effect (beetle larvae killed)
Description: Solvents: 78.0 parts by weight of acetone • • 1.5 parts by weight of dimethylformamide Emulsifier: 0.5 part by weight of alkylaryl polyglycol ether An appropriate preparation of active compound is prepared by mixing 1 part by weight of active compound with the stated amounts of solvent and emulsifier and diluting the concentrate with emulsifier-containing water to the desired concentration. Leaf discs of Chinese cabbage (Brassica pekinensis) are sprayed with a preparation of active compound at the desired concentration and, after they have dried, are populated with larvae of the mustard beetle (Phaedon cochleariae). After 7 days, the effect in % is determined. Here, 100% means that all of the beetle larvae have been killed; 0% means that no beetle larvae have been killed.

Boophilus microplus = Boophilus microplus test (BOOPMI injection); assay type: in vivo; details: Rhipicephalus microplus, 168 h; 20 μg/animal, injection into abdomen, after 7 days; read-out: activity (no fertile eggs laid)
Description: Solvent: Dimethyl Sulphoxide An appropriate preparation of active compound is prepared by mixing 10 mg of active compound with 0.5 ml of solvent and diluting the concentrate with solvent to the desired concentration. The solution of active compound is injected into the abdomen (Boophilus microplus) and the animals are transferred into dishes and kept in a controlled atmosphere. The activity is assessed on the basis of deposition of fertile eggs. After 7 days, the effect in % is determined. Here, 100% means that none of the ticks has laid fertile eggs.

Row | chromatographic logP [1] | Compound | pest or weed control at 100 g/ha [2] [%] | pest or weed control at 500 g/ha [2] [%] | pest or weed control at 500 g/ha [3] [%] | pest or weed control at 0.02 mg (Boophilus microplus) [%]
1 | 2.5 | Cc1ccc(N/N=C(\N)C(F)F)c(Cl)c1 [X-1] | – | – | – | –
2 | 5.11 | Cc1cc(C)c(-n2cnc(C(F)(F)C(F)(F)F)n2)cc1SCC1CC1 [I-A-14] | 100 | – | – | –
3 | 3.37 | Cc1cc(C)c(-n2cnc(C(F)F)n2)cc1SCC(F)(F)C(F)F [I-A-19] | 100 | – | – | –
4 | 4.53 | Cc1cc(Cl)c(-n2cnc(C(F)F)n2)cc1SSc1cc(-n2cnc(C(F)F)n2)c(Cl)cc1C [II-A-3] | – | – | – | –
5 | 3.65 | Cc1ccc(N/N=C(\N)C(F)(F)C(F)(F)F)c(C)c1 [X-2] | – | – | – | –
6 | 3.27 | Cc1cc(C)c([S+]([O-])CC(F)(F)F)cc1-n1cnc(C(F)(F)C(F)(F)F)n1 (stereo not shown) [I-A-10] | – | 100 | 100 | 100
7 | 1.37 | Cc1cc(F)c(-n2cnc(C(F)F)n2)cc1[S+](C)[O-] (stereo not shown) [I-A-22] | – | 80 | – | –
8 | 1.81 | Cc1cc(F)c(-n2cnc(C(F)F)n2)cc1[S+]([O-])CC(F)F (stereo not shown) [I-A-23] | – | 100 | 100 | –
9 | 2.93 | CSc1cc(-n2cnc(C(F)F)n2)c(F)cc1C [I-A-38] | – | 100 | – | –
10 | 3.68 | Cc1cc(C)c(-n2cnc(C(F)F)n2)cc1SCCC(F)(F)F [I-A-36] | 100 | – | – | 100
11 | 1.96 | Cc1cc(F)c(-n2cnc(C(F)F)n2)cc1[S+]([O-])CC1CC1 (stereo not shown) [I-A-29] | – | 100 | – | –
12 | 4.49 | Cc1cc(C)c(-n2cnc(C(F)(F)C(F)(F)F)n2)cc1SCC(F)(F)F [I-A-28] | 100 | – | – | –
13 | 6.62 | Cc1cc(C)c(-n2cnc(C(F)(F)C(F)(F)Cl)n2)cc1SSc1cc(-n2cnc(C(F)(F)C(F)(F)Cl)n2)c(C)cc1C [II-A-6] | – | – | – | –
14 | 3.86 | Cc1cc(C)c(-n2cnc(C(F)F)n2)cc1SCC(F)(F)C(F)(F)F [I-A-37] | 100 | – | – | –
15 | 5.58 | Cc1cc(C)c(-n2cnc(C(F)(F)C(F)(F)F)n2)cc1SCC(C)C [I-A-34] | 100 | – | – | –
16 | 3.11 | Cc1cc(C)c([S+]([O-])CC2CC2)cc1-n1cnc(C(F)(F)C(F)(F)F)n1 (stereo not shown) [I-A-11] | 100 | – | – | 100
17 | 2.47 | Cc1cc(C)c(-n2cnc(C(F)F)n2)cc1SCC#N [I-A-20] | – | 100 | – | –
18 | 1.4 | Cc1cc(F)c(-n2cnc(C(F)F)n2)cc1[S+]([O-])CC#N (stereo not shown) [I-A-26] | – | 100 | – | –
19 | 2.35 | Cc1cc(C)c([S+]([O-])CC(F)(F)C(F)F)cc1-n1cnc(C(F)F)n1 (stereo not shown) [I-A-32] | 100 | – | – | –
20 | 1.9 | Cc1cc(C)c([S+]([O-])CC(F)F)cc1-n1cnc(C(F)F)n1 (stereo not shown) [I-A-3] | 100 | – | – | 100
21 | 5.22 | Cc1cc(C)c(-n2cnc(C(F)(F)C(F)F)n2)cc1SSc1cc(-n2cnc(C(F)(F)C(F)F)n2)c(C)cc1C [II-A-5] | – | – | – | –
22 | 1.46 | Cc1cc(C)c([S+](C)[O-])cc1-n1cnc(C(F)F)n1 (stereo not shown) [I-A-21] | – | 80 | – | –
23 | 3.08 | Cc1ccc(-n2cnc(C(F)(F)C(F)F)n2)c(C)c1 [IV-A-6] | – | – | – | –
24 | 6.36 | Cc1cc(C)c(-n2cnc(C(F)(F)C(F)(F)F)n2)cc1SSc1cc(-n2cnc(C(F)(F)C(F)(F)F)n2)c(C)cc1C [II-A-4] | – | – | – | –
25 | 2.31 | Cc1ccc(-n2cnc(C(F)F)n2)c(F)c1 [IV-A-3] | – | 90 | – | –
26 | 1.34 | N/C(=N\Nc1ccc(F)cc1)C(F)F [X-3] | – | – | – | –
27 | 2.05 | Cc1cc(C)c([S+]([O-])CC2CC2)cc1-n1cnc(C(F)F)n1 (stereo not shown) [I-A-33] | – | 100 | – | –

Row | chromatographic logP [1] | Compound | pest or weed control at 100 g/ha [2] [%] | pest or weed control at 500 g/ha [2] [%] | pest or weed control at 500 g/ha [3] [%] | pest or weed control at 0.02 mg (Boophilus microplus) [%]
28 | 3.88 | Cc1ccc(-n2cnc(C(F)(F)C(F)(F)Cl)n2)c(C)c1 [IV-A-1] | – | – | – | –
29 | 3.46 | Cc1cc(C)c([S+]([O-])CC(C)C)cc1-n1cnc(C(F)(F)C(F)(F)F)n1 (stereo not shown) [I-A-39] | 100 | – | – | 100
30 | 2.91 | Cc1ccc(NNC(=O)C(F)(F)C(F)(F)F)c(C)c1 [V-2] | – | – | – | –
31 | 3.02 | Cc1cc(C)c([S+]([O-])CC(F)F)cc1-n1cnc(C(F)(F)C(F)(F)Cl)n1 (stereo not shown) [I-A-12] | 100 | – | 100 | 100
32 | 4.33 | Cc1cc(F)c(-n2cnc(C(F)F)n2)cc1SSc1cc(-n2cnc(C(F)F)n2)c(F)cc1C [II-A-2] | – | – | – | –
33 | 3.78 | Cc1ccc(-n2cnc(C(F)(F)C(F)(F)F)n2)c(C)c1 [IV-A-5] | – | – | – | –
34 | 1.66 | Cc1ccc(NNC(=O)C(F)F)c(F)c1 [V-5] | – | – | – | –
35 | 2.43 | Cc1ccc(-n2cnc(C(F)F)n2)c(C)c1 [IV-A-2, 3-(Difluoromethyl)-1-(2,4-dimethylphenyl)-1H-1,2,4-triazole] | – | 80 | – | –
36 | 2.72 | Cc1cc(C)c([S+]([O-])CC(F)(F)C(F)(F)F)cc1-n1cnc(C(F)F)n1 (stereo not shown) [I-A-35] | 100 | – | – | –
37 | 3.85 | Cc1cc(C)c(-n2cnc(C(F)F)n2)cc1SCC1CC1 [I-A-13] | 100 | – | – | –
38 | 1.49 | Cc1cc(C)c([S+]([O-])CC#N)cc1-n1cnc(C(F)F)n1 (stereo not shown) [I-A-25] | – | 100 | – | –
39 | 2.26 | Cc1ccc(-n2cnc(C(F)F)n2)cc1 [IV-A-7] | – | – | – | –
40 | 2.94 | Cc1cc(F)c(-n2cnc(C(F)F)n2)cc1SCC(F)F [I-A-6] | 100 | – | 100 | –
41 | 2.31 | Cc1cc(F)c(-n2cnc(C(F)F)n2)cc1SCC#N [I-A-24] | – | 100 | – | –
42 | 3.24 | Cc1ccc(-n2cnc(C(F)F)n2)cc1SCC(F)(F)F [I-A-5] | 100 | – | 100 | 100
43 | 2.46 | Cc1ccc(-n2cnc(C(F)F)n2)c(Cl)c1 [IV-A-4] | – | – | – | –
44 | 1.46 | Cc1ccc(NNC(=O)C(F)F)cc1 [V-4] | – | – | – | –
45 | 2.28 | Cc1cc(C)c([S+]([O-])CCC(F)(F)F)cc1-n1cnc(C(F)F)n1 (stereo not shown) [I-A-17] | 100 | – | – | 100
46 | 4.19 | Cc1ccc(-n2cnc(C(F)F)n2)cc1SSc1cc(-n2cnc(C(F)F)n2)ccc1C [II-A-7] | – | – | – | –
47 | 3.01 | CSc1cc(-n2cnc(C(F)F)n2)c(C)cc1C [I-A-18] | – | 100 | – | –
48 | 2.96 | Cc1ccc(NNC(=O)C(F)(F)C(F)(F)Cl)c(C)c1 [V-1] | – | 90 | – | –
49 | 3.81 | Cc1cc(F)c(-n2cnc(C(F)F)n2)cc1SCC1CC1 [I-A-31] | 100 | – | 100 | –
50 | 4.45 | Cc1cc(C)c(-n2cnc(C(F)F)n2)cc1SSc1cc(-n2cnc(C(F)F)n2)c(C)cc1C [II-A-1, 1,1′-[Disulphanediylbis(4,6-dimethylbenzene-3,1-diyl)]bis[3-(difluoromethyl)-1H-1,2,4-triazole]] | – | – | – | –
51 | 2.46 | Cc1ccc(NNC(=O)C(F)(F)C(F)F)c(C)c1 [V-3] | – | – | – | –
52 | 2.95 | Cc1cc(C)c([S+]([O-])CC(F)F)cc1-n1cnc(C(F)(F)C(F)(F)F)n1 (stereo not shown) [I-A-8] | 100 | – | – | 100
53 | 4.22 | Cc1cc(C)c(-n2cnc(C(F)(F)C(F)(F)F)n2)cc1SCC(F)F [I-A-7] | 100 | – | – | 100
